The term IC50 denotes the point on the concentration scale where inhibition reaches its midpoint. Read a low IC50 as inhibition by little substance.

In the first assay the target is BRG-1 (Homo sapiens, UniProt P51532). Nature of the assay: ATPase catalytic activity assay (ADP-Glo), BRG-1.
Sequence of BRG-1 (P51532 whole entry): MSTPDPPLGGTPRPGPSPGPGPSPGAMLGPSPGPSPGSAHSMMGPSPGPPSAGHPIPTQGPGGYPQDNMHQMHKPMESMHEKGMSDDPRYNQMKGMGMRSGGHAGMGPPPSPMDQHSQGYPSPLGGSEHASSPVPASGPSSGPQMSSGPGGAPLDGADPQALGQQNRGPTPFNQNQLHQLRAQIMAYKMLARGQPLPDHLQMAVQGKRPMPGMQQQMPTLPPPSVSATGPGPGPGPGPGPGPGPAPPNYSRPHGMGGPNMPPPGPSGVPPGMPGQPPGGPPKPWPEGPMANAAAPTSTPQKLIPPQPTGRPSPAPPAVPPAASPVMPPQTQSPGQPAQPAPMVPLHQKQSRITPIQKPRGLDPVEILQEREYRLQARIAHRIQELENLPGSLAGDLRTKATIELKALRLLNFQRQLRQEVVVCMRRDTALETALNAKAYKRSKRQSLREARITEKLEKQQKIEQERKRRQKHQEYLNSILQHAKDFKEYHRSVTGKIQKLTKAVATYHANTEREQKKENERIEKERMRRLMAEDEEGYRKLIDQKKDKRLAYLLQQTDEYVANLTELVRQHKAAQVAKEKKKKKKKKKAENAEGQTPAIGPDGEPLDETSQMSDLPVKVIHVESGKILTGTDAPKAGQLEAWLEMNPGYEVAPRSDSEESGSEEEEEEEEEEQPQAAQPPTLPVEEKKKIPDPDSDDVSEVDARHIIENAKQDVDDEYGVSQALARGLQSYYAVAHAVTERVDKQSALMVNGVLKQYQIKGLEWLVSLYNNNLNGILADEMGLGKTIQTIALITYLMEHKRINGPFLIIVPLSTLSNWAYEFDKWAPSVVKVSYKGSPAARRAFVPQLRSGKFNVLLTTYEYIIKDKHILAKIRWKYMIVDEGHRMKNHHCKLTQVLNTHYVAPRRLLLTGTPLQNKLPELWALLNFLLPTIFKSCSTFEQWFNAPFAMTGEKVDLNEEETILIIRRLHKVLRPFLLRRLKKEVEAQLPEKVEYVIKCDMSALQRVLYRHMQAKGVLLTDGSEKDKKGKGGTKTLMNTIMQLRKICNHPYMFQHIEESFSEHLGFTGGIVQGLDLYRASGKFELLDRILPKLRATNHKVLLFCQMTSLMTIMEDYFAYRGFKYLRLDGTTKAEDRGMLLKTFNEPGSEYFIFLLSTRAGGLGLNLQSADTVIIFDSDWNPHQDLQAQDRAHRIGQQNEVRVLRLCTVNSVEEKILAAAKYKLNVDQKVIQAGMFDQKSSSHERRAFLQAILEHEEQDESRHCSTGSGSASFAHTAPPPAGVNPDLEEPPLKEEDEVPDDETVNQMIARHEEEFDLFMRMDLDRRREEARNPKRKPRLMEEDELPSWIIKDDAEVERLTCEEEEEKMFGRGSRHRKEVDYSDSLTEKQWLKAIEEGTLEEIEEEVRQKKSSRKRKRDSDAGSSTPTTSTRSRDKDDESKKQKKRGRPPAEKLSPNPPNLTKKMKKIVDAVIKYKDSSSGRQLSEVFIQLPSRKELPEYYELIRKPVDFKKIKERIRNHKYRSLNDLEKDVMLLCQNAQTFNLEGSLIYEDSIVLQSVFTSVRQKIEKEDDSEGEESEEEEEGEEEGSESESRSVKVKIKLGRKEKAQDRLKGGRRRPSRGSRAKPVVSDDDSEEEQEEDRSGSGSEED
Details: not given
As to `CN(C)c1cccc(-c2ccc3nnc(CNC(=O)c4ccc5c(c4)[C@](C)(F)COC5)cc3n2)n1` [Compound 238], the IC50 is < 100 nM.

In turn, `C[C@@]1(C#N)COCc2ccc(C(=O)NCc3cc4c(cn3)CCN(c3cncc(N5CCC5)n3)C4)cc21` [Compound 298] gave an IC50 of 100 to 500 nM.

Take `Cc1nccc(-c2ccc3cnc(CNC(=O)c4ccc5c(c4)[C@](C)(C#N)COC5)cc3n2)n1` [Compound 444]: the IC50 was in the range of 500 to 1000 nM.

Consider `C[C@@]1(C#N)COCc2ccc(C(=O)NCc3cc(OCC4CCOCC4)ccn3)cc21` [Compound 61], for which the 50% inhibitory concentration (IC50) is > 1000 nM.

Molecule `C[C@@]1(C#N)COCc2ccc(C(=O)NCc3cc4nc(-c5ccnc(N6CC7CC(C6)O7)n5)ccc4cn3)cc21` [Compound 284] came in with an IC50 of 100 to 500 nM.

On to `COc1cc(F)ccc1-c1ccc2cnc(CNC(=O)c3ccc4c(c3)[C@](C)(C#N)COC4)cc2n1` [Compound 481], for which the IC50 lay in the range of 100 to 500 nM.

`Cc1nn(-c2ccc3cnc(CNC(=O)c4ccc5c(c4)[C@](C)(C#N)COC5)cc3n2)cc1F` [Compound 433]: the half-maximal inhibitory concentration (IC50) fell in the range of 500 to 1000 nM.

As to `CC(=O)N1CCOc2c(-c3ccc4cnc(CNC(=O)c5ccc6c(c5)[C@](C)(C#N)COC6)cc4n3)cccc21` [Compound 320], the IC50 fell in the range of 500 to 1000 nM.

In the case of `C[C@@]1(C#N)COCc2ncc(C(=O)NCc3cc4nc(-c5cccc(N6CCC6)n5)ccc4cn3)cc21` [Compound 210], the IC50 was in the range of 100 to 500 nM.

In turn, `C[C@@]1(F)COCc2ccc(C(=O)NCc3cc4nc(-c5ccccc5)sc4cn3)cc21` [Compound 300] displayed an IC50 of 500 to 1000 nM.

Turning to `C[C@@]1(F)COCc2c(F)cc(C(=O)NCc3cc4nc(-c5cncc(N6CCC6)n5)ccc4cn3)cc21` [Compound 398], the IC50 lay in the range of 100 to 500 nM.

As for `C[C@@]1(C#N)COCc2ccc(C(=O)NCc3cc4nc(-c5cn(C6COC6)nc5C(F)F)ccc4cn3)cc21` [Compound 145], the half-maximal inhibitory concentration (IC50) is 500 to 1000 nM.

Turning to `C[C@@]1(C#N)COCc2ccc(C(=O)NCc3cc(N4CCc5cc(C(F)F)ccc5C4)ccn3)cc21` [Compound 67], the concentration for half-maximal inhibition (IC50) lay in the range of 500 to 1000 nM.

Staying with this assay, now noted: 1 h, read-out: BRG1 Max % Inhibition, ADP-Glo, 30 nM BRG-1, 400 μM ATP.
Turning to `CN(C)c1cccc(-c2ccc3nnc(CNC(=O)c4ccc5c(c4)[C@](C)(F)COC5)cc3n2)n1` [Compound 238], the Emax is 96%.

Take `C[C@@]1(C#N)COCc2ccc(C(=O)NCc3cc4c(cn3)CCN(c3cncc(N5CCC5)n3)C4)cc21` [Compound 298]: the Emax stood at 82%.

As to `Cc1nccc(-c2ccc3cnc(CNC(=O)c4ccc5c(c4)[C@](C)(C#N)COC5)cc3n2)n1` [Compound 444], the Emax came out at 67%.

Regarding `C[C@@]1(C#N)COCc2ccc(C(=O)NCc3cc(OCC4CCOCC4)ccn3)cc21` [Compound 61], the Emax came to 25%.

As for `C[C@@]1(C#N)COCc2ccc(C(=O)NCc3cc4nc(-c5ccnc(N6CC7CC(C6)O7)n5)ccc4cn3)cc21` [Compound 284], the Emax worked out at 93%.

`COc1cc(F)ccc1-c1ccc2cnc(CNC(=O)c3ccc4c(c3)[C@](C)(C#N)COC4)cc2n1` [Compound 481]: the Emax was 95%.

As for `Cc1nn(-c2ccc3cnc(CNC(=O)c4ccc5c(c4)[C@](C)(C#N)COC5)cc3n2)cc1F` [Compound 433], the Emax was determined as 59%.

For `CC(=O)N1CCOc2c(-c3ccc4cnc(CNC(=O)c5ccc6c(c5)[C@](C)(C#N)COC6)cc4n3)cccc21` [Compound 320], the Emax was 80%.

On to `C[C@@]1(C#N)COCc2ncc(C(=O)NCc3cc4nc(-c5cccc(N6CCC6)n5)ccc4cn3)cc21` [Compound 210], for which the Emax is 96%.

Turning to `C[C@@]1(F)COCc2ccc(C(=O)NCc3cc4nc(-c5ccccc5)sc4cn3)cc21` [Compound 300], the Emax was 63%.

In the case of `C[C@@]1(F)COCc2c(F)cc(C(=O)NCc3cc4nc(-c5cncc(N6CCC6)n5)ccc4cn3)cc21` [Compound 398], the Emax was 91%.

As for `C[C@@]1(C#N)COCc2ccc(C(=O)NCc3cc4nc(-c5cn(C6COC6)nc5C(F)F)ccc4cn3)cc21` [Compound 145], the Emax was determined as 65%.

Turning to `C[C@@]1(C#N)COCc2ccc(C(=O)NCc3cc(N4CCc5cc(C(F)F)ccc5C4)ccn3)cc21` [Compound 67], the Emax was found to be 84%.

A further assay deals with BRM (Homo sapiens, UniProt P51531). The assay is described as follows: ATPase catalytic activity assay (ADP-Glo), BRM. To be noted: 30 nM BRM, 400 μM ATP. For orientation: ADP-Glo turns the ADP formed in a reaction into a luminescent signal.
Sequence of BRM (P51531 whole entry): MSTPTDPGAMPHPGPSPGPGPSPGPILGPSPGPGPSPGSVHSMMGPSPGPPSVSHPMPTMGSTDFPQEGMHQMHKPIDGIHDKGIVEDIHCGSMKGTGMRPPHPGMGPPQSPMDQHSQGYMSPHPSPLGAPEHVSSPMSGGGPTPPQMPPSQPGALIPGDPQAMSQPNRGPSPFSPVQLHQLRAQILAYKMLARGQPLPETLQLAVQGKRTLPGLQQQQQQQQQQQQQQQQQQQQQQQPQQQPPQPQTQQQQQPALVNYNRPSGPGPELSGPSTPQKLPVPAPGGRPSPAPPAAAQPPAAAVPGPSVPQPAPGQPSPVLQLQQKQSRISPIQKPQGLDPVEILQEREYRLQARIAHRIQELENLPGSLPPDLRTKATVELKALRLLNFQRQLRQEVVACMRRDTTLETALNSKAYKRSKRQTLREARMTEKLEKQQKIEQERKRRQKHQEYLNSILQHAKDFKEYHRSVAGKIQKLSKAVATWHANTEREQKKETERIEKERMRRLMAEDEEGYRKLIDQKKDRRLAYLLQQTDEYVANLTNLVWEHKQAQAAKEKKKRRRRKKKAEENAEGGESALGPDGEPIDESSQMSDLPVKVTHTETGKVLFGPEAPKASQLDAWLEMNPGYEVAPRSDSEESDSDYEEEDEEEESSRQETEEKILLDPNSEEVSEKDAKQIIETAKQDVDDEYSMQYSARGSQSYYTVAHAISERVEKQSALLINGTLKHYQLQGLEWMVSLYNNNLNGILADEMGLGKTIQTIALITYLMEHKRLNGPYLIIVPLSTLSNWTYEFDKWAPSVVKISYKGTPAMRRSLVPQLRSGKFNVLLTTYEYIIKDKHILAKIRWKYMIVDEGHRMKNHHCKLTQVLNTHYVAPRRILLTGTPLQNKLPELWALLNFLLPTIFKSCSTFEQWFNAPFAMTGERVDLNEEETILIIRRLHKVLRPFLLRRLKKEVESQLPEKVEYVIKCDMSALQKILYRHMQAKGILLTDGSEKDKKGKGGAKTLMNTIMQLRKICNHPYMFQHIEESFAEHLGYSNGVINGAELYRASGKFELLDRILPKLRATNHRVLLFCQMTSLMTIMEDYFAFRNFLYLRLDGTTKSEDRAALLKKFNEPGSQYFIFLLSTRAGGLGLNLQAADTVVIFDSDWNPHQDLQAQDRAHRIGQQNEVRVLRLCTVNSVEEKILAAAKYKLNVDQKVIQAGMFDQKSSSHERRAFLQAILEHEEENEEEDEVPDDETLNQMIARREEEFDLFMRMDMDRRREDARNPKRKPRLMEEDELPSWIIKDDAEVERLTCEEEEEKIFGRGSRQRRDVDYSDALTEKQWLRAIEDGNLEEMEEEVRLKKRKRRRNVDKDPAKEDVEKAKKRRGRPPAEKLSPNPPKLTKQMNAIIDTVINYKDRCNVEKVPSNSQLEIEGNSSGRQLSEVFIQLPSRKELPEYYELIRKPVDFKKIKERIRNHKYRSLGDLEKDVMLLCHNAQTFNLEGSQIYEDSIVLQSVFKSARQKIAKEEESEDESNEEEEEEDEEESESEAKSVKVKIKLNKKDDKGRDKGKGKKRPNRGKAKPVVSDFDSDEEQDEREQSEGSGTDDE
For `CN(C)c1cccc(-c2ccc3nnc(CNC(=O)c4ccc5c(c4)[C@](C)(F)COC5)cc3n2)n1` [Compound 238], the “BRM Max % Inhibition” value turned out to be 100%.

For `C[C@@]1(C#N)COCc2ccc(C(=O)NCc3cc4c(cn3)CCN(c3cncc(N5CCC5)n3)C4)cc21` [Compound 298], the “BRM Max % Inhibition” value was found to be 99%.

Take `Cc1nccc(-c2ccc3cnc(CNC(=O)c4ccc5c(c4)[C@](C)(C#N)COC5)cc3n2)n1` [Compound 444]: the “BRM Max % Inhibition” value is on record as 93%.

`C[C@@]1(C#N)COCc2ccc(C(=O)NCc3cc(OCC4CCOCC4)ccn3)cc21` [Compound 61]: the “BRM Max % Inhibition” value is reported as 85%.

Regarding `C[C@@]1(C#N)COCc2ccc(C(=O)NCc3cc4nc(-c5ccnc(N6CC7CC(C6)O7)n5)ccc4cn3)cc21` [Compound 284], the “BRM Max % Inhibition” value was 99%.

With `COc1cc(F)ccc1-c1ccc2cnc(CNC(=O)c3ccc4c(c3)[C@](C)(C#N)COC4)cc2n1` [Compound 481], the “BRM Max % Inhibition” value was 98%.

Take `Cc1nn(-c2ccc3cnc(CNC(=O)c4ccc5c(c4)[C@](C)(C#N)COC5)cc3n2)cc1F` [Compound 433]: the “BRM Max % Inhibition” value turned out to be 96%.

For the molecule `CC(=O)N1CCOc2c(-c3ccc4cnc(CNC(=O)c5ccc6c(c5)[C@](C)(C#N)COC6)cc4n3)cccc21` [Compound 320], the “BRM Max % Inhibition” value is 107%.

For `C[C@@]1(C#N)COCc2ncc(C(=O)NCc3cc4nc(-c5cccc(N6CCC6)n5)ccc4cn3)cc21` [Compound 210], the “BRM Max % Inhibition” value turned out to be 99%.

As to `C[C@@]1(F)COCc2ccc(C(=O)NCc3cc4nc(-c5ccccc5)sc4cn3)cc21` [Compound 300], the “BRM Max % Inhibition” value came out at 99%.

Regarding `C[C@@]1(F)COCc2c(F)cc(C(=O)NCc3cc4nc(-c5cncc(N6CCC6)n5)ccc4cn3)cc21` [Compound 398], the “BRM Max % Inhibition” value is on record as 98%.

Turning to `C[C@@]1(C#N)COCc2ccc(C(=O)NCc3cc4nc(-c5cn(C6COC6)nc5C(F)F)ccc4cn3)cc21` [Compound 145], the “BRM Max % Inhibition” value came out at 94%.

`C[C@@]1(C#N)COCc2ccc(C(=O)NCc3cc(N4CCc5cc(C(F)F)ccc5C4)ccn3)cc21` [Compound 67]: the “BRM Max % Inhibition” value came to 97%.

The assay is the same for the next values; noted with them: BRM ATPase: IC50 (uM), 30 nM BRM, 400 μM ATP.
As for `CN(C)c1cccc(-c2ccc3nnc(CNC(=O)c4ccc5c(c4)[C@](C)(F)COC5)cc3n2)n1` [Compound 238], the IC50 was < 0.1 µM.

Turning to `C[C@@]1(C#N)COCc2ccc(C(=O)NCc3cc4c(cn3)CCN(c3cncc(N5CCC5)n3)C4)cc21` [Compound 298], the IC50 is < 0.1 µM.

`Cc1nccc(-c2ccc3cnc(CNC(=O)c4ccc5c(c4)[C@](C)(C#N)COC5)cc3n2)n1` [Compound 444]: the 50% inhibitory concentration (IC50) is 0.1 to 0.5 µM.

The molecule `C[C@@]1(C#N)COCc2ccc(C(=O)NCc3cc(OCC4CCOCC4)ccn3)cc21` [Compound 61] came in with an IC50 of 0.1 to 0.5 µM.

As for `C[C@@]1(C#N)COCc2ccc(C(=O)NCc3cc4nc(-c5ccnc(N6CC7CC(C6)O7)n5)ccc4cn3)cc21` [Compound 284], the half-inhibitory concentration (IC50) is < 0.1 µM.

As for `COc1cc(F)ccc1-c1ccc2cnc(CNC(=O)c3ccc4c(c3)[C@](C)(C#N)COC4)cc2n1` [Compound 481], the 50% inhibitory concentration (IC50) is < 0.1 µM.

For `Cc1nn(-c2ccc3cnc(CNC(=O)c4ccc5c(c4)[C@](C)(C#N)COC5)cc3n2)cc1F` [Compound 433], the IC50 was 0.1 to 0.5 µM.

`CC(=O)N1CCOc2c(-c3ccc4cnc(CNC(=O)c5ccc6c(c5)[C@](C)(C#N)COC6)cc4n3)cccc21` [Compound 320] registered an IC50 of 0.1 to 0.5 µM.

On to `C[C@@]1(C#N)COCc2ncc(C(=O)NCc3cc4nc(-c5cccc(N6CCC6)n5)ccc4cn3)cc21` [Compound 210], for which the IC50 was < 0.1 µM.

The molecule `C[C@@]1(F)COCc2ccc(C(=O)NCc3cc4nc(-c5ccccc5)sc4cn3)cc21` [Compound 300] registered a half-maximal inhibitory concentration (IC50) of 0.1 to 0.5 µM.

Turning to `C[C@@]1(F)COCc2c(F)cc(C(=O)NCc3cc4nc(-c5cncc(N6CCC6)n5)ccc4cn3)cc21` [Compound 398], the 50% inhibitory concentration (IC50) is < 0.1 µM.

In the case of `C[C@@]1(C#N)COCc2ccc(C(=O)NCc3cc4nc(-c5cn(C6COC6)nc5C(F)F)ccc4cn3)cc21` [Compound 145], the IC50 lay in the range of 0.1 to 0.5 µM.

`C[C@@]1(C#N)COCc2ccc(C(=O)NCc3cc(N4CCc5cc(C(F)F)ccc5C4)ccn3)cc21` [Compound 67] had an IC50 of 0.1 to 0.5 µM.

Values taken from patent US12441726B2, “Compounds and uses thereof” (Foghorn Therapeutics Inc., priority 2020, dated 2025).
